Experimental data as given in patent US7425579B2, “Methods for inhibiting activity of polyamine transporters” (Universite Laval, priority 1998, dated 2008).
Read-outs that look alike come from different tables or passages of the source.

What was measured:
[1] = tested on: T-47D cells; experiment: Reversal of DFMO-induced cytostasis by exogenous spermidine in T-47D cells; assay type: cell-based, human; settings: T-47D cells with extracellular spermidine and DFMO
Method: FIGS. 6A, 6B, 6C and 6D are graph showing that antagonism of DFMO-induced cytostasis by exogenous spermidine depends on the polyamine and linker structure of the compounds used in a method according to a preferred embodiment of the invention. In particular, T-47D cells were grown for 8-9 d with the indicated concentrations of spermidine in medium containing 1 mM aminoguanidine, in the presence of DFMO (●), transport inhibitor (□), DFMO plus transport inhibitor (▪), or in the absence of either agent (∘), and total DNA content per culture was then determined. Panels A, B, C, and D describe the effect of BNSD-X, BSD-X, BNSD-3 and BSD-3, respectively. Data are presented as the mean±SD for triplicate cultures from one out of at least two identical experiments;
(§1) FIGS. 8A and 8B are graphs representing the time course of the effect of a compound used in a method according to a preferred embodiment of the invention on rescue of DFMO-induced cytostasis by exogenous spermidine. In particular, at time zero, T-47D (panel A) or CHO-K1 (panel B) were seeded at 1×10^4 or 5×10^3 cells/well, respectively, in medium containing 1 mM aminoguanidine, plus either 0.3 μM spermidine (Spd, ●), 2 mM DFMO (□), Spd+DFMO (▪), 50 μM (A) or 100 μM (B) BNSD-X (Δ), BNSD-X+Spd (▴), BNSD-X+DFMO (□), BNSD-X+Spd+DFMO (▾), or vehicle only (∘). At the indicated time, total DNA content/well was determined. Data are presented as the mean±SD for triplicate cultures from one representative experiment;
(§2) To determine the ability of polyamine transport antagonists to potentiate DFMO-induced inhibition of cell proliferation in the presence of exogenous polyamines, cells were grown for the indicated period in growth medium supplemented with 1 mM aminoguanidine, and either DFMO (1 to 5 mM), the indicated transport inhibitor (50 or 100 μM), or the combination thereof, as well as increasing concentrations of spermidine (0.1 to 300 μM). Fresh medium was added every other day, and cell mass was determined at various time points during the period of exponential growth, or at the end of the experimental period. For the latter experiments, the FBS supplement was replaced with dextran-coated charcoal-treated FBS (5%, v/v) plus 0.5 μg/ml insulin in the case of T-47D, ZR-75-1 and MCF-7 cells (U.S. Pat. No. 6,083,496).

[2] = tested on: CHO-K1 cells; experiment: Reversal of DFMO-induced cytostasis by exogenous spermidine in CHO-K1 cells; assay type: cell-based, Chinese hamster; settings: DFMO-treated CHO-K1 cells with extracellular spermidine; data not shown
Method: as §1, §2

[3] = tested on: T-47D cells; experiment: Effect of inhibitors on T-47D cell proliferation (DNA content); assay type: cell-based, human
Method: FIGS. 3A and 3B are graphs showing the effect compounds used in a method according preferred embodiment of the present invention, on cell proliferation. In particular, they relate to the effect of selected BSD and BNSD derivatives on T-47D cell proliferation. Cells were incubated for 9 d with the indicated concentrations of BSD-2 (∘), BNSD-4 (●), BSD-4 (□), BNSD-6 (▪), BSD-10 (Δ), BSD-4-ene (▴) and BSD-4-yne (▾) in medium containing 1 mM aminoguanidine, and total DNA content per culture was then determined. B, Effect of BNSD-X (N,N,N′,N′-tetrakis-(3-aminopropyl)-p-diaminoxylene) on cell proliferation in various mammalian cell lines. Jurkat (∘), LAN-1 (●), L1210 (□), T-47D (▪), ZR-75-1 (Δ) and MDA-MB-231 (▴) cells were grown to near confluency or saturation (for 4 to 11 d according to the cell line considered) with the indicated concentrations of BNSD-X in the presence of 1 mM aminoguanidine, and total DNA content per culture was then determined. Data are given as the mean±SD for triplicate cultures from one out of at least two identical experiments;
FIGS. 4A and 4B are graphs showing how compounds used in a method according to a preferred embodiment are differentially sensitive to degradation by BSAO (bovine serum amine oxidase). In particular, T-47D cells were incubated for 9 d with the indicated concentrations of BSD-X (∘), BNSD-X (●), BSD-3 (□) or BNSD-3 (▪) in the absence (A) or presence of 1 mM aminoguanidine (B), and total DNA content per culture was then determined. Data are presented as the mean±SD for triplicate cultures from one representative experiment;
The effect of transport inhibitors on cell proliferation was evaluated by determination of cell number (L1210, Jurkat) using electronic sizing with a Model ZM Coulter counter (Coulter Electronics, Hialeah, Fla.), or DNA content per culture (for all other cell lines) with the 3,5-diaminobenzoic acid assay. […] Cytotoxicity of the inhibitors was determined in the presence or absence of aminoguanidine, and was confirmed by a trypan blue exclusion assay.

[4] = tested on: mammalian polyamine carrier; experiment: Determination of polyamine uptake activity: inhibition of diamine and polyamine transport in T-47D cells; assay type: cell-based, human; settings: for Ki: T-47D breast cancer cells, mean±SD
Method: The rate of diamine and polyamine transport was determined in T-47D and ZR-75-1 cells incubated in serum-free RPMI 1640 medium as previously described (U.S. Pat. No. 6,083,496; Covassin et al. (1999) Bioorg. Med. Chem. Lett. 9, 1709-1714), using 20 μM [^3H]putrescine (179 Ci/mol), 5 μM [^3H]spermidine (246 Ci/mol) and 3 μM [^14C]spermine (300-400 mCi/mol) respectively, as substrates for a 20-min assay period. Uptake activity was expressed per amount of DNA as fluorometrically determined using 3,5-diaminobenzoic acid (Simard et al. (1990) Endocrinology 126, 3223-3231). Kinetic parameters of polyamine transport inhibition for the transport antagonists were determined by Lineweaver-Burke analysis of uptake activity in the presence of 0.1 μM [^3H]putrescine, 0.03 μM [^3H]spermidine, and 0.01 μM [^14C]spermine plus increasing concentrations of nonradioactive substrate. For competitive inhibitors, Ki values were estimated by iterative curve fitting for sigmoidal equations describing transport rates in the presence of increasing concentrations of antagonist, using the Cheng-Prusoff equation for competitive inhibition (U.S. Pat. No. 6,083,496).
The ability of BSD and BNSD compounds to inhibit uptake of the main natural substrates of the mammalian polyamine carrier, namely putrescine, spermidine and spermine, was evaluated using T-47D human breast cancer cells (Table 1).
Data are presented as the mean±SD of at least two independent determinations of IC50 values, each based on triplicate determinations of uptake velocity at increasing inhibitor concentrations.
The potency of the polyamines and their xylylated dimers as competitive inhibitors of spermidine transport was evaluated in the T-47D human breast cancer cell line (Table 2).

[5] = tested on: MDA-MB-231 human breast cancer xenograft; experiment: MDA-MB-231 human breast cancer xenograft in nude mice; assay type: in vivo, immunodeficient CD-1 mice; settings: 39 d
Method: (§3) In particular, the mice have been treated with the following compounds: BNSD-X (1% w/v) (●), 0.3 (w/v) DFMO (□), 0.3% DFMO+BNSD-X (▪), 1% (w/v) DFMO (Δ), or 1% DFMO+BNSD-X (▴). Drugs were dissolved in drinking water which was given ad libitum to the animals. Control mice (∘) received distilled water only;
as §3, with “only; and” for “only;”
In particular, these compounds are BNSD-X (1% w/v), 0.3 (w/v) DFMO, 0.3% DFMO+BNSD-X, 1% (w/v) DFMO, or 1% DFMO+BNSD-X Drugs were dissolved in drinking water which was given ad libitum to the animals. Control mice received distilled water only.
For human xenograft experiments, athymic CD-1 mice were inoculated with 5×10^6 MDA-MB-231 human breast cancer cells (grown in tissue culture incubators to mid-exponential phase) in both sides of the inguinal mammary fat pad. After ˜2 weeks, when the tumor had reached a diameter ˜4 mm (as measured with a caliper), control mice were paired to treated ones in accordance with tumor volume (time zero). Animals were allowed free access to water containing 0, 0.3 or 1% DFMO (w/v), plus or minus 1% (w/v) BNSD-X (7 mice/experimental group). Tumor volume (V) was measured twice weekly with a caliper in 2 dimensions using the approximation V=(L×w^2)/2, where L is the length and w is the width of the xenograft (Bandyopadhyay et al., (2002) Cancer Res. 62:4690-4695). Animals were sacrificed after 39 d (i.e. when tumor size in control mice had reached about 500 mm^3). Mammary tumors were be excised and weighed.
The efficacy of BNSD-X as a chemotherapeutic agent was assessed in the MDA-MB-231 model of human breast cancer xenograft in the nude mouse, a model which is known to be sensitive to polyamine depletion by DFMO (Weeks et al., (2000) Exp Cell Res. 261:293-302). For that purpose, MDA-MB-231 cells were injected in the left and right mammary fat pads of immunodeficient CD-1 mice. Mice were then allowed to drink either BNSD-X at the optimal concentration (1%, w/v), as well as DFMO at either 0.3% or 1% (w/v) plus or minus 1% BNSD-X for 39 days before sacrificing the animals and measuring total final tumor mass (FIG. 12-14). The BNSD-X solution alone or with 0.3% DFMO led to a slight (˜7%) reduction of body weight, which was attenuated by the addition of 1% DFMO (FIG. 13) However, this effect of body weight could largely be accounted on the decreased tumor burden in the BNSD-X treated animals (FIG. 14). […]

[6] = tested on: CHO-K1 cells; experiment: Determination of intracellular polyamine contents in CHO-K1 cells; assay type: cell-based, Chinese hamster
Method: At the indicated time, cells were harvested for the determination of putrescine (A), spermidine (B) and spermine contents (C). Data are presented as the mean±SD for triplicate cultures from one representative experiment; […] At the indicated time intervals, medium was removed, cell monolayers were rinsed twice: with 10 ml of ice-cold Ca^2+/Mg^2+-free phosphate-buffered saline (PBS) (2.7 mM KCl, 1.5 mM KH2PO4, 8.1 mM Na2HPO4, 137 mM NaCl), and cells were harvested by low-speed centrifugation (2400 g for 5 min at 4° C.). […] Polyamine content was then determined by ion-pair reverse phase HPLC with fluorometric detection after post-column derivatization with o-phthaldialdehyde as described (U.S. Pat. No. 6,083,496). […] Pat. No. 6,083,496).

[7] = read-out: Ki, inhibition of [3H]putrescine uptake
[8] = read-out: Ki, inhibition of [3H]spermidine uptake
[9] = read-out: Ki, inhibition of [14C]spermine uptake

Compound	effect on spermidine-mediated reversal of DFMO-induced growth inhibition, T-47D [1]	effect on spermidine-mediated reversal of DFMO-induced growth inhibition, CHO-K1 [2]	cytotoxicity in the absence of aminoguanidine [3]	Ki [4, 7] [nM]	Ki [4, 8] [nM]	Ki [4, 9] [nM]	times less potent than BSD-3 as a spermidine transport antagonist ([4]; T-47D cells)	reduction of tumor burden ([5]; DFMO alone (0.3%)) [%]	growth inhibition (tumor) ([5]; DFMO alone (1%)) [%]	decrease of the intracellular spermidine pool by DFMO alone ([6]; after a 24-h lag period, up to 4 days) [%]	effect on intracellular putrescine content ([6]; single agent)	effect on intracellular spermine content ([6]; up to 4 days)
NCCCN(CCCN)CCCN(CCCN)CCCN [19a]	exhibited no activity	exhibited no activity	considerably more cytotoxic than their spermidine-like homologs	1600 ± 400	8300 ± 800	6200 ± 1700	about 5 times	–	–	–	–	–
NCCCCN(CCCN)CCCN(CCCN)CCCCN [19b]	significantly potentiated DFMO-induced cytostasis	–	–	240 ± 30	1700 ± 400	2800 ± 600	–	–	–	–	–	–
NCCCCN(CCCN)Cc1ccc(CN(CCCN)CCCCN)cc1 [28b]	did not increase the range of spermidine concentrations able to reverse inhibition of cell proliferation by DFMO	afforded increased resistance to exogenous spermidine	–	280 ± 20	2000 ± 200	2900 ± 600	–	–	–	–	–	–
NCCC[C@](N)(C(=O)O)C(F)F [DFMO, α-difluoromethylornithine, reference compound]	–	–	–	–	–	–	–	50±6	73±7	80	rapidly led to putrescine depletion	little effect on spermine content
